Test results from patent US20220281846A1, “COMPOUNDS AND COMPOSITIONS FOR THE TREATMENT OF RESPIRATORY DISEASES” (THE UNIVERSITY OF MELBOURNE, priority 2018, published 2022).

Assays:
[1] = test system: TGF-β-induced IL-11 in primary human parenchymal fibroblast cells (pFbs); experiment: Human parenchymal fibroblast cell assay, TGF-β-induced IL-11 (ELISA); type: cell-based; settings: compounds 0.1-10 μM 30 min prior to TGF-β1, 16-24 hours, 4.00* is assigned to compounds that failed to cause 50% or more inhibition at 10 µM, read-out: pIC50 IL-11 suppression (converted)
Experimental: Human Parenchymal Fibroblast Cell Assay
Primary human parenchymal fibroblast cells (pFbs) were cultured from parenchyma of lung resection specimens and from non-transplanted lungs of donors without chronic respiratory disease. pFbs were passaged in Dulbecco's Modified Eagle's Media (DMEM) containing 10% (v/v) heat-inactivated fetal calf serum (FCS), 15 mM HEPES, 0.2% (v/v) sodium bicarbonate, 2 mM L-glutamine, 1% (v/v) non-essential amino acids, 1% (v/v) sodium pyruvate, 2.5 μg/mL amphotericin, 5 IU/mL penicillin and 50 μg/mL streptomycin. In some experiments the human lung fibroblast cell line, MRC5 (sourced from ATTC) was used as indicated. The MRC5 line was maintained under the same conditions as described for the pFb.
Prior to experimentation, pFb were incubated in serum-free DMEM containing 0.25% bovine serum albumin (BSA) and insulin-transferrin-selenium-containing supplement (Monomed A; CSL, Parkville, Melbourne, Australia). The cells were incubated with small molecular CK1δ inhibitors (0.1-10 μM) for 30 min prior to […] TGF-β1 (R&D Systems, Minneapolis, Minn.) and the incubation continued for 16-24 hours prior to harvest of supernatant for detection of immunoreactive IL-11. Stock solutions were made as 10 mM in 100% DMSO and diluted to the required concentration in medium containing 0.1% DMSO (final concentration).
Supernatants were collected for measurement of IL-11 (R&D DuoSet, DY218) by ELISA following the manufacturers' instructions. Generally, capture antibodies were initially diluted to the recommended concentrations using PBS buffer, and then used to coat the wells of 96-well microplates (Greiner, #655061) by adding 50 μL/well and incubated overnight at room temperature. Next day, solutions were discarded and wells were washed 3 times with wash buffer (PBS containing 0.1% (v/v) Tween-20) prior to the addition of 200 μL of blocking solution (PBS containing 1% (v/v) BSA) for 1 hour to block non-specific sites. Plates were then washed 3 times with wash buffer and 50 μL of samples or standards were then added to wells and incubated for 2 hours at room temperature. After the incubation, plates were washed 3 times with wash buffer and 50 μL of detection antibodies were added to wells and incubated for 2 hours at room temperature. Plates were then washed 3 times before adding streptavidin-conjugated horseradish peroxidase (at the recommended concentrations) for 45 min. Plates were then washed 5 times with wash buffer and 100 μL TMB substrate solution (equal parts A and B, BD Biosciences) was added to each well until sufficient signals emerged. The reactions were inactivated by adding 100 μL sulphuric acid (2M H2SO4). The absorbance was measured at 450 nm using the Multiskan Ascent® plate reader. The absorbance of the cytokine standards was fitted to a logistic equation, allowing the concentrations of cytokine in samples to be determined.
PIC50 values (the negative log of the concentration suppressing IL-11 level by 50%) for inhibition of TGF-β-induced IL-11 were interpolated from the linear regression of log concentration small molecule versus IL-11 level (Table 4 and FIG. 2).

[2] = target: T1, MINK/MINK1 (Homo sapiens, UniProt Q8N4C8); experiment: Kinase inhibition assay (HotSpot), MINK/MINK1; type: biochemical; settings: 10 μM ATP, 10-dose IC50 mode; read-out: Compound IC50 (M) MINK/MINK1
T1 construct: purchased Reaction Biology Corp

[3] = target: T2, human recombinant Casein kinase 18 (CK1δ) (Homo sapiens, UniProt P48730); experiment: Kinase inhibition assay (HotSpot, Reaction Biology Corp), CK1δ; type: biochemical; settings: 10 μM ATP, 10-dose IC50 mode; read-out: Compound IC50 (M) CK1δ
T2 construct: purchased Reaction Biology Corp

[4] = target: T3, ERBB4/HER4 (Homo sapiens, UniProt Q15303); experiment: Kinase inhibition assay (HotSpot), ERBB4/HER4; type: biochemical; settings: 10 μM ATP, 10-dose IC50 mode; read-out: Compound IC50 (M) ERBB4/HER4
T3 construct: purchased Reaction Biology Corp
T3 sequence (Q15303 26-1308): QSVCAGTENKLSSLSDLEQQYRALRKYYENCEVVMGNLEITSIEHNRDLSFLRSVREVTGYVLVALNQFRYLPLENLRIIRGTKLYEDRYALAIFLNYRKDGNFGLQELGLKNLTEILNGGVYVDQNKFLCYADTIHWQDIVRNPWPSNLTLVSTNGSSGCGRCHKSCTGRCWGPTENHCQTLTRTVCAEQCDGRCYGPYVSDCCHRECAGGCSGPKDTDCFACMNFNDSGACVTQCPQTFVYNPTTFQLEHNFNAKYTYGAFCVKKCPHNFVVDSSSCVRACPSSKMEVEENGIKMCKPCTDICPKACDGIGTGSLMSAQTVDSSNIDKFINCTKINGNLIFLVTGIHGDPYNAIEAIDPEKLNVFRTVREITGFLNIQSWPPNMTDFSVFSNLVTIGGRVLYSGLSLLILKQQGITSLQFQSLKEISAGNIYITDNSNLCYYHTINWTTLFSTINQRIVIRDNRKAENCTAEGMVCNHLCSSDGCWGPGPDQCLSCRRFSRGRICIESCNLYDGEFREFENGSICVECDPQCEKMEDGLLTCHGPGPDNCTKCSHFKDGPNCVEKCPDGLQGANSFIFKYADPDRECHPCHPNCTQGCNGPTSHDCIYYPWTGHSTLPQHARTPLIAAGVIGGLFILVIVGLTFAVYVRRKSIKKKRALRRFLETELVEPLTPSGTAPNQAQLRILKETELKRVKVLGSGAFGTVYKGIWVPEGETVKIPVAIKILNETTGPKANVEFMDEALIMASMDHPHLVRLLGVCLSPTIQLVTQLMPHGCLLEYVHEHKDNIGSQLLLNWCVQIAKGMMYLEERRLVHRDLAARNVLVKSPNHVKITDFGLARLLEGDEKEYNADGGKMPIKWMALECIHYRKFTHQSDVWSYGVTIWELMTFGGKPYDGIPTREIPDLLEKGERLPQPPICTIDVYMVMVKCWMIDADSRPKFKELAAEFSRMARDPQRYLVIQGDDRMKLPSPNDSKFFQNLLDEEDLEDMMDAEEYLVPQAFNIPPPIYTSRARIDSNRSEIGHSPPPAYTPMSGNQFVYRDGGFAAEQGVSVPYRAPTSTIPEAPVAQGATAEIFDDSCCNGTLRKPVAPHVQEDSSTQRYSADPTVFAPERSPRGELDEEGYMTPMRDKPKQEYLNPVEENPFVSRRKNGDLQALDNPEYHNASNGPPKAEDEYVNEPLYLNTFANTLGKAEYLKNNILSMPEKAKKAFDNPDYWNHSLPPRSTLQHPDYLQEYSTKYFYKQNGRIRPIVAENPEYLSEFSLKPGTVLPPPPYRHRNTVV

T1 sequence (Q8N4C8 whole entry): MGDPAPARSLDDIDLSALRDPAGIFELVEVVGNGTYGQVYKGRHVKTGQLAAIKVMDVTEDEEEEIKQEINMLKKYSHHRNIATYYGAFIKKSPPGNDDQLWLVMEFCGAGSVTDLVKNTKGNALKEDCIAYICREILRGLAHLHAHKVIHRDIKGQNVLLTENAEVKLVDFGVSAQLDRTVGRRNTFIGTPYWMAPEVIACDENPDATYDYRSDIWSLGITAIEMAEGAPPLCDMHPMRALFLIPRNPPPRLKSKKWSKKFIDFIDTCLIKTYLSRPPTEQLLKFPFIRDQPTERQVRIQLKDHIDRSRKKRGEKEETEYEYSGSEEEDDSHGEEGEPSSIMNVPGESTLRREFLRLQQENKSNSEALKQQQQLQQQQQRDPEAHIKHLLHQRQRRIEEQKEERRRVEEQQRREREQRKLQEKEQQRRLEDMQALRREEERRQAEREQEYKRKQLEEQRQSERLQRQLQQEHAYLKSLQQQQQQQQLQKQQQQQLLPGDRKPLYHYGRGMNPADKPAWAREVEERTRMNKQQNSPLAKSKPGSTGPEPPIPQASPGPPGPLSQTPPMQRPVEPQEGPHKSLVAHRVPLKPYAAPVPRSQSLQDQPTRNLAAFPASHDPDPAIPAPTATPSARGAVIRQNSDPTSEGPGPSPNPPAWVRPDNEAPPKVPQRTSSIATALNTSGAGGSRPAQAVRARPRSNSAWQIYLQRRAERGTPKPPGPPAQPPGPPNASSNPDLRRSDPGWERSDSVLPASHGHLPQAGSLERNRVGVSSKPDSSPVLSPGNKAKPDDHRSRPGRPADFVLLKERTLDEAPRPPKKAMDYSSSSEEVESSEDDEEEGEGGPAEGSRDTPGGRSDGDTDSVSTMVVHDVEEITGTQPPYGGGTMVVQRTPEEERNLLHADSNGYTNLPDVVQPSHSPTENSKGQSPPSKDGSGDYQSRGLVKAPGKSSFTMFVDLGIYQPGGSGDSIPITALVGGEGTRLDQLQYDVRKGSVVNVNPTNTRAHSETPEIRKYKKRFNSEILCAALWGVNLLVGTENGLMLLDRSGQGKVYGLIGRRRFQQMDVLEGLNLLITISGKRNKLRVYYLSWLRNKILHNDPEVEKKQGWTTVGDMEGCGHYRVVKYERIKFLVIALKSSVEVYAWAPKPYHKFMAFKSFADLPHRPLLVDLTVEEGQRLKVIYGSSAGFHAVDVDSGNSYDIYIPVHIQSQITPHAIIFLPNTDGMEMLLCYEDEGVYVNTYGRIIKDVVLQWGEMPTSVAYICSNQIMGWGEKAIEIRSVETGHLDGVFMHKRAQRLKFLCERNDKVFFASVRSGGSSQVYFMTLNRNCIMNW
T2 sequence (P48730 whole entry): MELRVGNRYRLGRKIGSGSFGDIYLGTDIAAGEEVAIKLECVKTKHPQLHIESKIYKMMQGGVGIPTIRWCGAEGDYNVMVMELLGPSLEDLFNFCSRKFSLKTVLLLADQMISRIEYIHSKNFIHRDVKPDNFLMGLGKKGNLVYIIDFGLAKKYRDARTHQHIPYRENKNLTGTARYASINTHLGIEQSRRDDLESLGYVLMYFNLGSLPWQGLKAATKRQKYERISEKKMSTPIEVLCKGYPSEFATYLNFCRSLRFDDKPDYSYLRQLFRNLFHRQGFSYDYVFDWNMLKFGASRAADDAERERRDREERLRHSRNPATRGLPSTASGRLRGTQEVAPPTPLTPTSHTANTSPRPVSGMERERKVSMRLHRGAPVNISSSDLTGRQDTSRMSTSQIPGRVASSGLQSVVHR

Row | Compound | IC50 [2] [M] | IC50 [3] [M] | IC50 [4] [M] | IC50 [1] [nM]
1 | Fc1ccc(-c2ncn(C3CCCCC3)c2-c2ccnc(NC3CCCCC3)n2)cc1 [ZH2-58, N-Cyclohexyl-4-(1-cyclohexyl-4-(4-fluorophenyl)-1H-imidazol-5-yl)pyrimidin-2-amine] | 2.36e-07 | 1.95e-08 | > 1e-05 | 29500
2 | Nc1nccc(-c2c(-c3ccc(F)cc3)ncn2CC2CCC(F)(F)CC2)n1 [ZH3-130, 4-(1-((4,4-Difluorocyclohexyl)methyl)-4-(4-fluorophenyl)-1H-imidazol-5-yl)pyrimidin-2-amine] | 8.9e-07 | 6.13e-09 | 1.42e-06 | 832
3 | Nc1nccc(-c2c(-c3ccc(F)cc3)ncn2C2CCCC2)n1 [ZH3-58, 4-(1-Cyclopentyl-4-(4-fluorophenyl)-1H-imidazol-5-yl)pyrimidin-2-amine] | 2.17e-07 | 8.33e-09 | 1.39e-06 | 550
4 | Fc1ccc(-c2ncn(CC3CCCCC3)c2-c2ccnc(NC3COC3)n2)cc1 [ZH3-114, 4-(1-(Cyclohexylmethyl)-4-(4-fluorophenyl)-1H-imidazol-5-yl)-N-(oxetan-3-yl)pyrimidin-2-amine] | 9.44e-08 | 1.17e-09 | 3e-06 | 10500
5 | O=S1(=O)CCC(Nc2nccc(-c3c(-c4ccc(F)cc4)ncn3C3CCCCC3)n2)CC1 [ZH3-134, 4-((4-(1-Cyclohexyl-4-(4-fluorophenyl)-1H-imidazol-5-yl)pyrimidin-2-yl)amino)tetrahydro-2H-thiopyran 1,1-dioxide] | 3.77e-08 | 1.15e-09 |  | 
6 | Fc1ccc(-c2ncn(C3CCCCC3)c2-c2ccnc(NC3CCOCC3)n2)cc1 [ZH2-54, 4-(1-Cyclohexyl-4-(4-fluorophenyl)-1H-imidazol-5-yl)-N-(tetrahydro-2H-pyran-4-yl)pyrimidin-2-amine] | 1.7e-07 | 1.73e-09 |  | 4370
7 | CC(C)(C)Cn1cnc(-c2ccc(F)cc2)c1-c1ccnc(N)n1 [ZH3-78, 4-(4-(4-Fluorophenyl)-1-neopentyl-1H-imidazol-5-yl)pyrimidin-2-amine] | 8.09e-07 | 5.93e-08 | 8.35e-06 | 8510
8 | Fc1ccc(-c2ncn(C3CCCCC3)c2-c2ccnc(NCc3cccc(F)c3)n2)cc1 [ZH2-114, 4-(1-Cyclohexyl-4-(4-fluorophenyl)-1H-imidazol-5-yl)-N-(3-fluorobenzyl)pyrimidin-2-amine] | 3.33e-08 | 3.67e-09 |  | 
9 | Fc1ccc(-c2ncn(C3CCCCC3)c2-c2ccnc(NC3CCCC3)n2)cc1 [ZH2-46, 4-(1-Cyclohexyl-4-(4-fluorophenyl)-1H-imidazol-5-yl)-N-cyclopentylpyrimidin-2-amine] | 6.69e-08 | 4.99e-09 | 9.01e-06 | 
10 | Fc1ccc(-c2ncn(C3CCCCC3)c2-c2ccnc(NCc3ccccc3F)n2)cc1 [ZH2-118, 4-(1-Cyclohexyl-4-(4-fluorophenyl)-1H-imidazol-5-yl)-N-(2-fluorobenzyl)pyrimidin-2-amine] | 4.21e-08 | 9.6e-09 | 3.66e-06 | 1450
11 | Fc1ccc(-c2ncn(C3CCCCC3)c2-c2ccnc(NC3CCC(F)(F)CC3)n2)cc1 [ZH2-146, 4-(1-Cyclohexyl-4-(4-fluorophenyl)-1H-imidazol-5-yl)-N-(4,4-difluorocyclohexyl)pyrimidin-2-amine] | 1.1e-07 | 4.93e-09 |  | 11500
12 | OCCNc1nccc(-c2c(-c3ccc(F)cc3)ncn2CC2CCCCC2)n1 [ZH3-118, 2-((4-(1-(Cyclohexylmethyl)-4-(4-fluorophenyl)-1H-imidazol-5-yl)pyrimidin-2-yl)amino)ethan-1-ol] | 1.97e-07 | 2.13e-09 | 5.13e-07 | 8320

The next compounds have a lower IC50 [2] than those just listed; values first:

Row | IC50 [2] [M] | IC50 [3] [M] | IC50 [4] [M] | Compound | IC50 [1] [nM]
13 | 2.26e-08 | 4.7e-09 | 7.5e-07 | CCNc1nccc(-c2c(-c3ccc(F)cc3)ncn2C2CCCCC2)n1 [ZH2-78, 4-(1-Cyclohexyl-4-(4-fluorophenyl)-1H-imidazol-5-yl)-N-ethylpyrimidin-2-amine] | 295
14 | 2.16e-08 | 1e-09 |  | Fc1ccc(-c2ncn(C3CCCCC3)c2-c2ccnc(NC3CC(F)(F)C3)n2)cc1 [ZH3-70, 4-(1-Cyclohexyl-4-(4-fluorophenyl)-1H-imidazol-5-yl)-N-(3,3-difluorocyclobutyl)pyrimidin-2-amine] | 
15 | 1.95e-08 | 5.07e-09 |  | Fc1ccc(CNc2nccc(-c3c(-c4ccc(F)cc4)ncn3C3CCCCC3)n2)cc1 [ZH2-122, 4-(1-Cyclohexyl-4-(4-fluorophenyl)-1H-imidazol-5-yl)-N-(4-fluorobenzyl)pyrimidin-2-amine] | 2450
16 | 1.83e-08 | 4.16e-09 | 4.42e-06 | CCn1cnc(-c2ccc(F)cc2)c1-c1ccnc(NC2CCC2)n1 [ZH3-122, N-Cyclobutyl-4-(1-ethyl-4-(4-fluorophenyl)-1H-imidazol-5-yl)pyrimidin-2-amine] | 178
17 | 1.73e-08 | 1.36e-09 | 4.41e-06 | O[C@H]1C[C@H](Nc2nccc(-c3c(-c4ccc(F)cc4)ncn3C3CCCCC3)n2)C1 [ZH3-50, trans-3-((4-(1-Cyclohexyl-4-(4-fluorophenyl)-1H-imidazol-5-yl)pyrimidin-2-yl)amino)cyclobutan-1-ol] | 417
18 | 1.06e-08 | 7.59e-09 | 1.48e-06 | Fc1ccc(-c2ncn(C3CCCCC3)c2-c2ccnc(NC3CC3)n2)cc1 [ZH3-86, 4-(1-Cyclohexyl-4-(4-fluorophenyl)-1H-imidazol-5-yl)-N-cyclopropylpyrimidin-2-amine] | 339
19 | 7.53e-09 | 1.31e-09 | > 1e-05 | O[C@H]1C[C@@H](Nc2nccc(-c3c(-c4ccc(F)cc4)ncn3C3CCCCC3)n2)C1 [ZH3-62, cis-3-((4-(1-Cyclohexyl-4-(4-fluorophenyl)-1H-imidazol-5-yl)pyrimidin-2-yl)amino)cyclobutan-1-ol] | 1000
